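48-hour exposure; five concentrations; linearly interpolated endpoints. GI50: concentration for 50% inhibition of growth. TGI: concentration producing complete growth inhibition.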
Experiments:
Test in all cases: NCI-60 cell line screen, 48 h
OVCAR-4 ovarian = tested on: OVCAR-4 ovarian
RPMI-8226 leukemia = tested on: RPMI-8226 leukemia
K-562 leukemia = tested on: K-562 leukemia
786-0 renal = tested on: 786-0 renal
COLO 205 colon = tested on: COLO 205 colon
HOP-92 NSCLC = tested on: HOP-92 NSCLC
MALME-3M melanoma = tested on: MALME-3M melanoma
TK-10 renal = tested on: TK-10 renal
EKVX NSCLC = tested on: EKVX NSCLC
SN12C renal = tested on: SN12C renal

Row | Structure (SMILES) | TGI (OVCAR-4 ovarian) [µM] | TGI (RPMI-8226 leukemia) [µM] | TGI (K-562 leukemia) [µM] | TGI (786-0 renal) [µM] | TGI (COLO 205 colon) [µM] | TGI (HOP-92 NSCLC) [µM] | TGI (MALME-3M melanoma) [µM] | TGI (TK-10 renal) [µM] | TGI (EKVX NSCLC) [µM] | TGI (SN12C renal) [µM] | GI50 (OVCAR-4 ovarian) [µM] | GI50 (RPMI-8226 leukemia) [µM] | GI50 (K-562 leukemia) [µM] | GI50 (786-0 renal) [µM] | GI50 (COLO 205 colon) [µM] | GI50 (HOP-92 NSCLC) [µM] | GI50 (MALME-3M melanoma) [µM] | GI50 (TK-10 renal) [µM] | GI50 (EKVX NSCLC) [µM] | GI50 (SN12C renal) [µM]
1 | CCOc1ccccc1NC(=O)C1=C(C)NC(C)=C(C(=O)Nc2ccccc2OCC)C1c1cccc([N+](=O)[O-])c1 | > 100 | > 100 | > 100 | > 100 | > 100 | 41.3 | > 100 | > 100 | > 100 | > 100 |  |  |  |  |  |  |  |  |  | 
2 | C[C@H]1CC[C@@H]2[C@@H](C)[C@H]3[C@H](C[C@H]4[C@@H]5CC=C6C[C@@H](O)CC[C@]6(C)[C@H]5CC[C@]34C)N2C1 | > 100 | > 100 |  | > 100 | 39.2 | 58.3 | > 100 | > 100 | > 100 | > 100 |  |  |  |  |  |  |  |  |  | 
3 | COc1ccc2c(c1)[nH]c1c3ccc(OC)cc3oc(=O)c21 | > 100 | > 100 | > 100 | > 100 | > 100 | > 100 | > 100 | > 100 | > 100 | > 100 |  |  |  |  |  |  |  |  |  | 
4 | CN(C)CCOc1ccc2c(c1)C(=O)/C(=C\c1ncc([N+](=O)[O-])n1C)C2 | 3.53 | 14.4 |  | 3.39 | 0.628 | 3.25 | 1.69 | 4.8 | 3.83 | 5.21 | 0.529 | 2.14 | 0.295 | 0.857 | 0.25 | 0.701 | 0.371 | 1.57 | 0.711 | 1.12
5 | CCCC(=O)OC(OC(=O)CCC)c1ccc([N+](=O)[O-])o1 |  | 49.7 | > 100 | 36.5 | 54.9 | 56.3 | 40.3 | 53.5 | 99.6 | 31.3 |  |  |  |  |  |  |  |  |  | 
6 | CC1=C(SCCC(=O)OC(C[Se]C2=C(C)C(=O)c3ccccc3C2=O)C(=O)NC(C)(C)C)C(=O)c2ccccc2C1=O (centres undefined) | 2.76 | 2.71 | 2.59 | 2.91 | 3.14 | 2.13 | 3.89 | 4.1 | 4.48 | 2.99 | 1.45 | 0.507 | 0.774 | 1.57 | 1.66 | 0.793 | 2.01 | 2.52 | 1.58 | 1.47
7 | O=C1C=CC(=O)c2c(O)c(N(CCCl)CCCl)c(Cl)c(O)c21 | 6.24 | > 10 | > 10 | > 7.67 | 5.57 | 5.78 | 5.79 | 4.93 | > 10 | > 7.71 |  |  |  |  |  |  |  |  |  | 
8 | CCOC(=O)Cc1cc(=O)[nH]c(-n2[nH]c(C)c(CCO)c2=O)n1 | > 100 | > 100 | > 100 | > 100 | > 100 |  | > 100 | > 100 | > 100 | > 100 |  |  |  |  |  |  |  |  |  | 
9 | Cc1c(Cl)cccc1NC(=O)C(=O)c1c(O)c2ccc(O)cc2oc1=O | > 100 |  | > 100 | > 100 | > 100 | > 100 | > 100 | > 100 | > 100 | > 100 |  |  |  |  |  |  |  |  |  | 
10 | CCN1CCC(O)(/C=C/c2ccccc2)C(C(=O)/C=C/c2ccccc2)C1 (centres undefined) | 8.01 |  |  | 3.32 | 3.49 | 8.76 | 5.09 | 7.88 | 11.8 | 3.7 |  |  |  |  |  |  |  |  |  | 
11 | COC(=O)C#CC(N)=O | > 100 |  | 60.1 | > 100 | > 100 | 40.6 | 19.1 | 99.1 | > 100 | > 100 |  |  |  |  |  |  |  |  |  | 
12 | CC1OC(=O)N2CCC=CC12 (centres undefined) | > 100 | > 100 | > 100 | > 100 | > 100 |  | > 100 | > 100 | > 100 | > 100 |  |  |  |  |  |  |  |  |  | 
13 | C/C(=N\Nc1n[nH]c(=S)n1N)c1c(O)cc(C)oc1=O | > 100 |  | > 100 | > 100 |  | > 100 | > 100 | > 100 | > 100 | > 100 |  |  |  |  |  |  |  |  |  | 
14 | C#C[C@@H](CCCC)OC(=O)N[C@H](C)c1ccccc1 | > 100 | 87.6 | > 100 | > 100 |  |  |  | > 100 | > 100 | > 100 |  |  |  |  |  |  |  |  |  | 
15 | CC(=O)[O][Hg][c]1s[c]([Hg][O]C(C)=O)[c]([Hg][O]C(C)=O)[c]1[Hg][O]C(C)=O | 87.7 | > 100 | 18.8 | 41.8 | 38.6 | 5.88 | 17.2 |  |  | > 100 | 12.7 | 7.54 | 1.3 | 2.48 | 15.9 | 2.92 | 3.16 |  |  | 8.33
16 | COc1ccc(/C=C2/CSC/C(=C/c3ccc(OC)c(OC)c3)C2=O)cc1OC | 5.49 |  |  | 3.56 | 6.28 | 43.7 | 12.2 | 29.5 | 42.8 | 4.13 |  |  |  |  |  |  |  |  |  | 
17 | Cc1nc(-n2nc(-c3ccccc3)cc2-c2ccccc2)sc1C(=O)CC(=O)C(=O)Nc1ccc(O)cc1 | > 100 | > 100 | > 100 | > 100 | > 100 |  | > 100 | > 100 | > 100 | > 100 |  |  |  |  |  |  |  |  |  | 
18 | O=C(CCc1cc(-c2ccc(F)cc2)n[nH]1)N(Cc1ccccc1)Cc1ccccc1 |  | > 100 | > 100 | > 100 | > 100 | > 100 | > 100 | > 100 | > 100 | > 100 |  |  |  |  |  |  |  |  |  | 
19 | Cn1cccc1-c1cc(-c2ccccc2)nc(N)c1C#N | > 100 | > 100 | > 100 | > 100 | > 100 |  | > 100 | > 100 | > 100 | > 100 | > 68.6 | 55.9 | > 100 | > 96.4 | > 100 |  | > 100 | > 100 | 98.1 | > 76.8
20 | Nc1ccn(C2CC3OCC3O2)c(=O)n1 (centres undefined) | > 100 | > 100 | > 100 | > 100 | > 100 |  |  | > 100 | > 100 | > 100 |  |  |  |  |  |  |  |  |  | 

Reference: PubChem BioAssay (NCI)
